In brackets after ≈: the same amount, converted by molar mass. Where two headings read alike, the source gives them in different places.
Key:
[1] = In vitro metabolic stability, mouse liver microsomes; type: in vitro ADME; design: dose or concentration left out as unconfirmed; conditions: pH 7.4, read-out: m-LM stab. t1/2
Description: In vitro metabolic stability. Microsomes stability experiments. In vitro incubation with mouse microsomes (NADPH and UDPG system). […] At time zero, cofactors were added. […] The mixture was kept at 37° C. under shaking. Aliquots (50 mL) were taken at various time points and crashed with 0.15 mL of CH3CN spiked with 500 nM warfarin (internal standard). Reference incubation, with microsomes but without cofactors, was kept at 37° C. and sampled at the end of the time course. After vortexing and centrifugation, 3 mL of supernatant were analyzed by LCMS/MS and detected by multiple reaction monitoring (MRM).

Plasma stability = type: in vitro ADME; design: dose or concentration left out as unconfirmed; conditions: mouse plasma; read-out: m-plasma stab. t1/2
h-AC = h-AC (Homo sapiens (Human), UniProt Q13510); test: biochemical; conditions: read-out: h-AC inh (%) 30 μM
[2] = Aqueous kinetic solubility in PBS pH 7.4; type: physicochemical; conditions: pH 7.4, aqueous buffer, kinetic from dmso stock; for solubility at 24 h: PBS, Table 7
[3] = phosphate-buffered saline (PBS) pH 7.4, 25 °C, Table 9, read-out: Aq. Skin
[4] = phosphate-buffered saline (PBS), 25 °C, Table 9, read-out: Aq. Skin
[5] = phosphate-buffered saline (PBS), 25 °C
[6] = phosphate-buffered saline (PBS), 25 °C, Table 11, read-out: Aq. Kinetic Solubility
[7] = 25 °C, Table 10, read-out: Aq. Kinetic Solubility
[8] = phosphate-buffered saline (PBS), 25 °C, Table 10, read-out: Aq. Kinetic Solubility

`O=C(c1ccccc1S(=O)(=O)C1CC1)N1CCN(c2nc3ccc(F)cc3s2)CC1` [Compound 22] gave a half-life [1] of over 1 h, a half-life (Plasma stability) of over 2 h and an inhibition at 30 µM (h-AC) of -1%.
`CCS(=O)(=O)c1ccccc1C(=O)N1CCN(c2nc3ccc(F)cc3s2)[C@H](C)C1` [Compound 24] gave an inhibition at 30 µM (h-AC) of 1%.
`CCS(=O)(=O)c1ccccc1C(=O)N1CCN(c2nc3ccc(F)cc3o2)C[C@@H]1C` [Compound 26] showed a solubility kinetic at 24 h [2, 3] of 6 µM (≈ 2.59 µg/mL), a half-life [1] of over 1 h and a half-life (Plasma stability) of over 2 h. The inhibition at 30 µM (h-AC) was -12%.
`C[C@H]1CN(c2nc3ccc(F)cc3o2)CCN1C(=O)c1ccccc1S(=O)(=O)C1CC1` [Compound 27] showed a solubility kinetic at 24 h [2, 3] of 124 µM (≈ 55 µg/mL), a half-life (Plasma stability) of over 2 h and an inhibition at 30 µM (h-AC) of -12%.
Work on `CCCS(=O)(=O)c1ccccc1C(=O)N1CCN(c2nc3ccc(F)cc3o2)C[C@@H]1C` [Compound 28] yielded a solubility kinetic at 24 h [2, 3] of 45 µM (≈ 20 µg/mL), a half-life (Plasma stability) of over 2 h and an inhibition at 30 µM (h-AC) of -11%.
With `CCS(=O)(=O)c1ccccc1C(=O)N1CCN(c2nc3ccc(F)c(F)c3s2)C[C@@H]1C` [Compound 36] the solubility kinetic at 24 h [2, 4] was 1 µM (≈ 0.466 µg/mL), the half-life [1] was over 1 h and the half-life (Plasma stability) was over 2 h.
Work on `CCCS(=O)(=O)c1ccccc1C(=O)N1CCN(c2nc3ccc(F)c(F)c3s2)C[C@@H]1C` [Compound 37] yielded a solubility kinetic at 24 h [2, 4] of 8 µM (≈ 3.84 µg/mL), a half-life [1] of over 1 h and a half-life (Plasma stability) of over 2 h. The inhibition at 30 µM (h-AC) was 9%.
In the case of `C[C@H]1CN(c2nc3ccc(F)c(F)c3s2)CCN1C(=O)c1ccccc1S(=O)(=O)C1CC1` [Compound 38], the solubility kinetic at 24 h [2, 4] is reported as 14 µM (≈ 6.69 µg/mL) and the half-life (Plasma stability) is reported as over 2 h.
`CCCS(=O)(=O)c1ccccc1C(=O)N1CCN(c2nc3ccc(F)cc3s2)C[C@@H]1C` [Compound 41, [(2S)-4-(6-fluoro-1,3-benzothiazol-2-yl)-2-methyl-piperazin-1-yl]-(2-propylsulfonylphenyl)methanone] gave a solubility at 24 h [2, 5] of 76 ± 1 µM (≈ 35.1 µg/mL).
In the case of `C[C@H]1CN(c2nc3ccc(F)cc3s2)CCN1C(=O)c1ccccc1S(=O)(=O)C1CC1` [Compound 42, (2-cyclopropylsulfonylphenyl)-[(2S)-4-(6-fluoro-1,3-benzothiazol-2-yl)-2-methyl-piperazin-1-yl]methanone], the solubility at 24 h [2, 5] is reported as 115 ± 7 µM (≈ 52.9 µg/mL).
Compound `CCS(=O)(=O)c1ccccc1C(=O)N1CCN(c2nc3ccccc3s2)CC1` [H] has a solubility kinetic at 24 h [2, 6] of 196 µM (≈ 81.4 µg/mL).
For `CCS(=O)(=O)c1ccccc1C(=O)N1CCN(c2nc3ccc(OC)cc3s2)CC1` [OMe], the solubility kinetic at 24 h [2, 6] was 39 µM (≈ 17.4 µg/mL).
In the case of `O=C(c1ccccc1S(=O)(=O)C1CCC1)N1CCN(c2nc3ccc(F)cc3s2)CC1` [c-butyl], the solubility kinetic [2, 7] is reported as 5 µM (≈ 2.3 µg/mL).
With `O=C(c1ccccc1S(=O)(=O)C1CCCC1)N1CCN(c2nc3ccc(F)cc3s2)CC1` [c-pentyl] the solubility kinetic [2, 7] was under 1 µM.
Work on `O=C(c1ccccc1S(=O)(=O)C1CC1)N1CCN(c2nc3ccc(F)cc3s2)CC1` [c-propyl] yielded a solubility kinetic [2, 7] of 10 µM (≈ 4.46 µg/mL).
For `CC(C)S(=O)(=O)c1ccccc1C(=O)N1CCN(c2nc3ccc(F)cc3s2)CC1` [i-Pr], the solubility kinetic at 24 h [2, 8] was under 1 µM.
Compound `O=C(c1ccccc1S(=O)(=O)C1COC1)N1CCN(c2nc3ccc(F)cc3s2)CC1` [oxetan-3-yl] has a solubility kinetic at 24 h [2, 8] of 22 µM (≈ 10.2 µg/mL).
